Measured values published in patent US10039752B2 (Cipla Limited, priority 2016, dated 2018).
Read-outs that look alike come from different tables or passages of the source.

Columns and labels:
[1] = tested on: human pancreatic cancer xenografts (PDX model PAXF 546); test: In vivo animal efficacy study; set-up: species or system Nude mice; conditions: for Mean Tumor volume: methazolamide 60 mg/kg p.o., gemcitabine 50 mg/kg i.v. Q7D, in mm³; for tumor growth inhibition: methazolamide 60 mg/kg orally, gemcitabine 50 mg/kg i.v.
[2] = tested on: PAXF 1986L, PAXF 546L, PAXF Capan-2, and PAXF MIA-Pa-Ca-2; test: cells; conditions: Homo sapiens, 192 h, read-out: relative IC50 values, range over four cell lines
Method: The clonogenic assay was carried out in a 96 well plate format using ultra low attachment plates. For each test cells were prepared as described above, and assay plates were prepared as follows: each test well contained a layer of semi-solid medium with tumor cells (50 μl), and a second layer of medium supernatant with or without test compounds (100 μl). […] The soft-agar layer was immediately covered with 90 μl of the same culture medium without agar. After 24 hour the test compounds were added after serial dilution in IMDM and transfer in cell culture medium, and left on the cells for the duration of the experiment (continuous exposure, 100 μL total drug overlay). Every plate included six untreated control wells and drug-treated groups in a layout as shown above. […] Within this period, ex vivo tumor growth led to the formation of colonies with a diameter of >50 μm. At the time of maximum colony formation, counts were performed with an automatic image analysis system (CellInsight NXT, Thermo Scientific). 48 hours prior to evaluation, vital colonies were stained with a sterile aqueous solution of 2-(4-iodophenyl)-3-(4-nitrophenyl)-5-phenyltetrazolium chloride (1 mg/ml, 100 μl/well).

[3] = tested on: PAXF 1986L; test: In vitro 2-D assay (CellTiter-Blue cell viability, 96 h); type: cell-based; conditions: Homo sapiens, PAXF 1986, 96 hours treatment
Source text: (§1) PAXF 546L, PAXF 1986L, PAXF 1998L, PAXF 2005L and PAXF 2059L were established at Oncotest from the corresponding human patient derived xenograft. CAPAN-2, HUP-T3 and PA-TU-8902 were purchased from DSMZ (Braunschweig, Germany). PANC-1 was purchased from CLS Cell Line Services GmbH (Eppelheim, Germany). BxPC-3, HPAC and MIA-Pa-Ca-2 were purchased from ATCC (Rockville, Md., USA). Authenticity of cell lines was confirmed at the DSMZ by STR (short tandem repeat) analysis, a PCR based DNA-fingerprinting methodology. Cell lines were routinely passaged once or twice weekly and maintained in culture for up to 20 passages. All cells were grown at 37° C. in a humidified atmosphere with 5% CO2 in RPMI 1640 medium (25 mM HEPES, with L-glutamine, #FG1385, Biochrom, Berlin, Germany) supplemented with 10% (v/v) fetal calf serum (Sigma, Taufkirchen, Germany) and 0.1 mg/mL gentamicin (Life Technologies, Karlsruhe, Germany).
(§2) The CellTiter-Blue® Cell Viability Assay (#G8081, Promega) was used according to manufacturer's instructions. Briefly, cells were harvested from exponential phase cultures, counted and plated in 96-well flat-bottom microtiter plates at a cell density of 6,000-20,000 cells/well depending on the cell line's growth rate. After a 24 hours recovery period to allow the cells to resume exponential growth, test compounds were added. […] After 96 hours treatment of cells, 20 μL/well CellTiter-Blue® reagent was added. Following an incubation period of up to four hours, fluorescence (FU) was measured by using the Enspire Multimode Plate Reader (excitation λ=531 nm, emission λ=615 nm). For calculations, the mean values of duplicate/quadruplicate (untreated control) data were used. Sigmoidal concentration-response curves were fitted to the data points (T/C values) obtained for each cell line using 4 parameter non-linear curve fit (Oncotest Warehouse Software).

[4] = tested on: PAXF 1998L; test: as above; type: cell-based; conditions: Homo sapiens, PAXF 1998, 96 hours treatment
Source text: as §1, §2

[5] = tested on: PAXF 2005L; test: as above; type: cell-based; conditions: Homo sapiens, PAXF 2005, 96 hours treatment
Source text: as §1, §2

[6] = tested on: PAXF 2059L; test: as above; type: cell-based; conditions: Homo sapiens, PAXF 2059, 96 hours treatment
Source text: as §1, §2

[7] = tested on: PAXF 546L; test: as above; type: cell-based; conditions: Homo sapiens, PAXF 546, 96 hours treatment
Source text: as §1, §2

[8] = tested on: PAXF BxPC-3; test: as above; type: cell-based; conditions: Homo sapiens, PAXF BxPC-3, 96 hours treatment
Source text: as §1, §2

[9] = tested on: PAXF CAPAN-2; test: as above; type: cell-based; conditions: Homo sapiens, PAXF CAPAN-2, 96 hours treatment
Source text: as §1, §2

[10] = tested on: PAXF HPAC; test: as above; type: cell-based; conditions: Homo sapiens, 96 hours treatment
Source text: as §1, §2

[11] = tested on: PAXF HUP-T3; test: as above; type: cell-based; conditions: Homo sapiens, PAXF HUP-T3, 96 hours treatment
Source text: as §1, §2

[12] = tested on: PAXF PA-TU-8902; test: as above; type: cell-based; conditions: Homo sapiens, PaTu 8902, PAXF PA-TU-8902, 96 hours treatment
Source text: as §1, §2

[13] = tested on: PAXF PANC-1; test: as above; type: cell-based; conditions: Homo sapiens, PAXF PANC-1, 96 hours treatment
Source text: as §1, §2

[14] = tested on: PAXF MIA-Pa-Ca-2; test: cells; conditions: Homo sapiens, MIA PaCa-2, 96 h
Source text: as §1, §2

[15] = tested on: twelve selected human pancreatic cancer cell lines; test: cells; conditions: for IC50: Homo sapiens, Pancreatic cancer cell
Source text: as §1, §2

[16] = tested on: PAXF 1982; test: In vitro 3D clonogenic assay; type: cell-based; conditions: Homo sapiens
Source text: (§3) Cell lines were routinely passaged one or twice weekly.

[17] = tested on: PAXF 1986; test: In vitro 3D clonogenic assay; type: cell-based; conditions: Homo sapiens
Source text: as §3

[18] = tested on: PAXF 2005; test: In vitro 3D clonogenic assay; type: cell-based; conditions: Homo sapiens
Source text: as §3

[19] = tested on: PAXF 2059; test: In vitro 3D clonogenic assay; type: cell-based; conditions: Homo sapiens
Source text: as §3

[20] = tested on: PAXF 546; test: In vitro 3D clonogenic assay; type: cell-based; conditions: Homo sapiens
Source text: as §3

[21] = tested on: PAXF BxPC-3; test: In vitro 3D clonogenic assay; type: cell-based; conditions: Homo sapiens
Source text: as §3

[22] = tested on: PAXF CAPAN-2; test: In vitro 3D clonogenic assay; type: cell-based; conditions: Homo sapiens
Source text: as §3

[23] = tested on: PAXF HPAC; test: In vitro 3D clonogenic assay; type: cell-based; conditions: Homo sapiens
Source text: as §3

[24] = tested on: PAXF PA-TU-8902; test: In vitro 3D clonogenic assay; type: cell-based; conditions: Homo sapiens
Source text: as §3

[25] = tested on: PAXF PANC-1; test: In vitro 3D clonogenic assay; type: cell-based; conditions: Homo sapiens
Source text: as §3

[26] = tested on: PAXF MIA-Pa-Ca-2; test: cells; conditions: Homo sapiens
Method: as §3
Tumor xenografts (patient-derived, as well as cell line-derived xenografts) were passaged as subcutaneous xenografts in NMRI nu/nu mice. […] The percentage of viable cells was determined in a Neubauer-hemocytometer using trypan blue exclusion. Aliquots of the cells were frozen down, and stored in liquid nitrogen. On each day of an experiment, a frozen aliquot of tumor cells was thawed and used for preparation of assay plates.

[27] = tested on: 11 human tumor xenograft-derived cell suspensions or tumor cell lines of pancreatic cancer; test: In vitro 3D clonogenic assay, whole panel (geometric mean); type: cell-based
Source text: as §3

Nc1ccn([C@@H]2O[C@H](CO)[C@@H](O)C2(F)F)c(=O)n1 [Gemcitabine, gemcitabine]
Mean Tumor volume ([1]; day 1): 119.84 | Mean Tumor volume ([1]; day 3): 172.26 | Mean Tumor volume ([1]; day 9): 214.28 | Mean Tumor volume ([1]; day 12): 262.19 | Mean Tumor volume ([1]; day 15): 312.84 | Mean Tumor volume ([1]; day 18): 334.59 | Mean Tumor volume ([1]; day 21): 382.57 | Mean Tumor volume ([1]; day 24): 454.56 | Mean Tumor volume ([1]; day 28): 592.69 | Mean Tumor volume ([1]; day 31): 648.88 | Mean Tumor volume ([1]; day 34): 696.91 | tumor growth inhibition [1]: 61% | IC50 [2]: 0.013 to 0.062 µM

CC(=O)N=c1sc(S(N)(=O)=O)nn1C [Methazolamide, N-[5-(aminosulfonyl)-3-methyl-1,3,4-thiadiazol-2(3H)-ylidene]acetamide]
IC50 ([3]; read-out: Absolute IC50): 1850 µM | IC50 ([3]; read-out: Relative IC50): 1670 µM | IC50 ([4]; read-out: Absolute IC50): 2510 µM | IC50 ([4]; read-out: Relative IC50): 2230 µM | IC50 ([5]; read-out: Absolute IC50): 1840 µM | IC50 ([5]; read-out: Relative IC50): 1580 µM | IC50 ([6]; read-out: Absolute IC50): 2040 µM | IC50 ([6]; read-out: Relative IC50): 1790 µM | IC50 ([7]; read-out: Absolute IC50): 2320 µM | IC50 ([7]; read-out: Relative IC50): 3050 µM | IC50 ([8]; read-out: Absolute IC50): 1960 µM | IC50 ([8]; read-out: Relative IC50): 2340 µM | IC50 ([9]; read-out: Absolute IC50): 2030 µM | IC50 ([9]; read-out: Relative IC50): 2040 µM | IC50 ([10]; read-out: Absolute IC50): 5350 µM | IC50 ([10]; read-out: Relative IC50): 5510 µM | IC50 ([11]; read-out: Absolute IC50): 726 µM | IC50 ([11]; read-out: Relative IC50): 711 µM | IC50 ([12]; read-out: Absolute IC50): 1030 µM | IC50 ([12]; read-out: Relative IC50): 1130 µM | IC50 ([13]; read-out: Absolute IC50): 1540 µM | IC50 ([13]; read-out: Relative IC50): 1590 µM | IC50 ([14]; read-out: Absolute IC50): 1520 µM | IC50 ([14]; read-out: Relative IC50): 1760 µM | activity, shape of concentration-effect curves ([15]; 2-D, all cell lines tested): concentration-dependent activity with sigmoidal concentration-effect curves | IC50 ([15]; read-out: Absolute IC50, Geometric Mean): 1840 µM | IC50 ([15]; read-out: Individual IC50 values, range over cell lines): 726 to 5350 µM | IC50 ([15]; read-out: Relative IC50, Geometric Mean): 1880 µM | IC50 ([16]; read-out: Absolute IC50): 703 µM | IC50 ([16]; read-out: Relative IC50): 725 µM | IC50 ([17]; read-out: Absolute IC50): 464 µM | IC50 ([17]; read-out: Relative IC50): 486 µM | IC50 ([18]; read-out: Absolute IC50): 523 µM | IC50 ([18]; read-out: Relative IC50): 603 µM | IC50 ([19]; read-out: Absolute IC50): 820 µM | IC50 ([19]; read-out: Relative IC50): 754 µM | IC50 ([20]; PAXF546, read-out: Absolute IC50): 346 µM | IC50 ([20]; PAXF546, read-out: Relative IC50): 336 µM | IC50 ([21]; read-out: Absolute IC50): 837 µM | IC50 ([21]; read-out: Relative IC50): 808 µM | IC50 ([22]; read-out: Absolute IC50): 568 µM | IC50 ([22]; read-out: Relative IC50): 620 µM | IC50 ([23]; read-out: Absolute IC50): 1360 µM | IC50 ([23]; read-out: Relative IC50): 1090 µM | IC50 ([24]; PaTu 8902, read-out: Absolute IC50): 2110 µM | IC50 ([24]; PaTu 8902, read-out: Relative IC50): 2580 µM | IC50 ([25]; read-out: Absolute IC50): 1760 µM | IC50 ([25]; read-out: Relative IC50): 1820 µM | IC50 ([26]; MIA PaCa-2, read-out: Absolute IC50): 533 µM | IC50 ([26]; MIA PaCa-2, read-out: Relative IC50): 489 µM | IC50 ([27]; read-out: Absolute IC50, Geometric mean): 777 µM | IC50 ([27]; read-out: Relative IC50, Geometric mean): 783 µM | Mean Tumor volume ([1]; day 1): 94.47 | Mean Tumor volume ([1]; day 3): 121.60 | Mean Tumor volume ([1]; day 9): 151.64 | Mean Tumor volume ([1]; day 12): 189.82 | Mean Tumor volume ([1]; day 15): 253.64 | Mean Tumor volume ([1]; day 18): 341.73 | Mean Tumor volume ([1]; day 21): 470.79 | Mean Tumor volume ([1]; day 24): 583.90 | Mean Tumor volume ([1]; day 28): 718.08 | Mean Tumor volume ([1]; day 31): 836.82 | Mean Tumor volume ([1]; day 34): 916.02 | tumor growth inhibition [1]: up to 50% | IC50 [2]: 297 to 806 µM
